According to PMC6038383, “Crystal structure of the spliceosomal DEAH-box ATPase Prp2” (Acta Crystallographica. Section D, Structural Biology, 2018):

Molecular target: T1, Prp2 from C. thermophilum (ctPrp2), residues 270-921 (Thermochaetoides thermophila, UniProt G0SEG4)
T1 construct: gene CTHT_0063660; N-terminally truncated residues 270-921, GST tag cleaved with PreScission protease, expressed in E. coli Rosetta 2 (DE3)
T1 sequence (G0SEG4 270-921): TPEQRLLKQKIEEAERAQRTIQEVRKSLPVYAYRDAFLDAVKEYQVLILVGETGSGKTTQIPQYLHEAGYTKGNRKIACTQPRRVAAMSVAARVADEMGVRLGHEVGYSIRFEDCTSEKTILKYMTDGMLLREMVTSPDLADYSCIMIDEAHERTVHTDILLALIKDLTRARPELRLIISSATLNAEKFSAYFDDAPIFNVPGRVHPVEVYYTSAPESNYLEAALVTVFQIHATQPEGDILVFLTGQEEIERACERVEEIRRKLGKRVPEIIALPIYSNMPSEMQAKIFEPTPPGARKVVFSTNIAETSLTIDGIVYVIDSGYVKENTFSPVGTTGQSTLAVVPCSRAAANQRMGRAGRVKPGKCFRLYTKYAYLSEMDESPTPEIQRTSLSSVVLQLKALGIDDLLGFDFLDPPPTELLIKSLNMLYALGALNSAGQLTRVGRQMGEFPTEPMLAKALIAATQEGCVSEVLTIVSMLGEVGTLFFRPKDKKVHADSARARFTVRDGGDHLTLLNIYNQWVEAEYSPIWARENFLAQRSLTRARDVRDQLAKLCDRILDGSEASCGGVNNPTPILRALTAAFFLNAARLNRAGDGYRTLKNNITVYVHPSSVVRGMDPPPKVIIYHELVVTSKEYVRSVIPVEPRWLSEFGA
Assay: isothermal titration calorimetry
Assay type: binding

Nc1ncnc2c1ncn2[C@@H]1O[C@H](COP(=O)(O)OP(=O)(O)O)[C@@H](O)[C@H]1O [ADP]
Kd: 179 nM
